Results reported in patent US10881644B2, “Treatment of asthma and chronic obstructive pulmonary disease with anti-proliferate and anti-inflammatory drugs” (Lutonix, Inc., priority 2006, dated 2021).

Experiments:
[1] = with the addition of BSA; cited from earlier work
[2] = Stability under ethylene oxide sterilization, heating and aging with paclitaxel; type: physicochemical; conditions: formulated with paclitaxel
albumin = conditions: cited from earlier work
[3] = Drug coated PTCA balloon catheter in pig blood vessels: residual drug on balloon and drug content in tissue by tissue extraction and HPLC; conditions: after only 0.2-2 minutes of deployment; substance used as additive in the drug coating
Description: 6 PTCA balloon catheters (3.5 and 3.0 mm in diameter and 20 mm in length) were inflated at 1-3 atm. […] The sufficient amount of drug on the balloon (3 microgram per square mm) was obtained. The inflated balloon was folded, and then dried. The coated folded balloon was then rewrapped and sterilized for animal testing.
The coated PTCA balloon catheter was inserted into target site in the blood vessels (LAD, LCX and RCA) in the 25-45 ib pig was inflated to 12 atm. […] The drug was delivered into the target tissue in 30-60 seconds. The balloon catheter was then deflated and was withdrawn from the animal body. The target blood vessel was harvested at 0.25-24 hours after inflation. The drug content in the target tissue and the residual drug remained on the balloon were analyzed by tissue extraction and HPLC. In some of the animal tests the stent was crimped on the drug coated balloon catheters prior to deployment.
All data is the average of five or six experimental data points.

[4] = 1 minute after intravenous injection in rats; cited from earlier work

CC(=O)O[C@H]1C(=O)[C@@]2(C)[C@H]([C@H](OC(=O)c3ccccc3)[C@]3(O)C[C@H](OC(=O)[C@H](O)[C@@H](NC(=O)c4ccccc4)c4ccccc4)C(C)=C1C3(C)C)[C@]1(OC(C)=O)CO[C@@H]1C[C@@H]2O [paclitaxel]
increase of solubility in PBS [1]: over 20 fold

O=C(O)c1ccccc1 [benzoic acid]
stability under ethylene oxide sterilization, heating, and aging process [2]: not stable

O=C1O[C@H]([C@@H](O)CO)C(O)=C1O [ascorbic acid]
stability under ethylene oxide sterilization, heating, and aging process [2]: not stable

CO[C@H]1C[C@@H]2CC[C@@H](C)[C@@](O)(O2)C(=O)C(=O)N2CCCC[C@H]2C(=O)O[C@H]([C@H](C)C[C@@H]2CC[C@@H](O)[C@H](OC)C2)CC(=O)[C@H](C)/C=C(\C)[C@@H](O)[C@@H](OC)C(=O)[C@H](C)C[C@H](C)/C=C/C=C/C=C/1C [rapamycin]
protein bound (albumin): 92%

OCCNCCO [diethanolamine]
stability under ethylene oxide sterilization, heating, and aging process [2]: not stable

O=C1O[C@H](CO)[C@@H](O)[C@H]1O [ribonic acid lactone]
drug absorption by tissue / drug levels in tissue [3]: unexpectedly high

I-iothalamate
share of myocardial content found in the extravascular space [4]: approximately 80%

O=C(O)c1cc(O)ccc1O [gentisic acid]
stability under ethylene oxide sterilization, heating, and aging process [2]: not stable

O=C1O[C@H](CO)[C@@H](O)[C@H](O)[C@H]1O [gluconolactone]
drug absorption by tissue / drug levels in tissue [3]: unexpectedly high
